In ChEMBL document CHEMBL3217602, “20-O-IngenolEZ, a catalytic topoisomerase II inhibitor, specifically inhibits cell proliferation and induces double-strand DNA breaks in BLM-/- cells” (2011):
Activity calls are given as the source filed them. The rule behind the calls is not given here.

What was measured:
[1] = Induction of apoptosis in chicken BLM-/- DT40 cells at 0.9 uM after 24 hrs by DAPI staining based immunofluorescence assay; type: functional, Gallus gallus
DT40 [2] = experiment: Induction of double-strand DNA breaks in chicken BLM-/- DT40 cell nuclear fraction assessed as gamma-H2AX phosphorylation at 0.9 uM after 24 hrs by immunoblot analysis; type: functional, cell-based; conditions: Gallus gallus
DT40 [3] = experiment: (§1) Inhibition of chicken wild type DT40 cell proliferation at 200 uM after 2 days by MTT assay; type: functional; conditions: Gallus gallus
DT40 [4] = experiment: Inhibition of chicken WRN-/- DT40 cell proliferation at 200 uM after 2 days by MTT assay; type: functional, cell-based; conditions: Gallus gallus
DT40 [5] = experiment: Inhibition of chicken BLM-/- DT40 cell proliferation at 200 uM after 2 days by MTT assay; type: functional, cell-based; conditions: Gallus gallus
DT40 [6] = experiment: Inhibition of chicken BLM-/- DT40 cell proliferation at 100 uM after 2 days by MTT assay; type: functional, cell-based; conditions: Gallus gallus
DT40 [7] = experiment: Inhibition of chicken WRN-/- DT40 cell proliferation at 2 to 100 uM after 2 days by MTT assay; type: functional, cell-based; conditions: Gallus gallus
[8] = as §1; type: functional; conditions: Gallus gallus, DT40, 48 h
DT40 [9] = experiment: Induction of apoptosis in chicken BLM-/- DT40 cells at 200 uM after 24 hrs by DAPI staining based immunofluorescence assay; type: functional, cell-based; conditions: Gallus gallus
DT40 [10] = experiment: Inhibition of chicken wild type DT40 cell proliferation at 2 to 100 uM after 2 days by MTT assay; type: functional, cell-based; conditions: Gallus gallus
DT40 [11] = experiment: Inhibition of chicken BLM-/- DT40 cell proliferation at 2 to 60 uM after 2 days by MTT assay; type: functional, cell-based; conditions: Gallus gallus
DT40 [12] = experiment: Induction of double-strand DNA breaks in chicken BLM-/- DT40 cell nuclear fraction assessed as gamma-H2AX phosphorylation at 200 uM after 24 hrs by immunoblot analysis; type: functional, cell-based; conditions: Gallus gallus

Row | Compound | Activity [1] [%] | Activity (DT40 [2]) | inhibition (DT40 [3]) | inhibition (DT40 [4]) | inhibition (DT40 [5]) | inhibition (DT40 [6]) | inhibition (DT40 [7]) | inhibition at 200 µM [8] [%] | Activity (DT40 [9]) | inhibition (DT40 [10]) | inhibition (DT40 [11]) | Activity (DT40 [12])
1 | COc1cccc2c1C(=O)c1c(O)c3c(c(O)c1C2=O)C[C@@](O)(C(=O)CO)C[C@@H]3O[C@H]1C[C@H](N)[C@H](O)[C@H](C)O1 [DOXORUBICIN] | 60 | Active |  |  |  |  |  |  |  |  |  | 
2 | C[C@H]([C@H](C)N1CC(=O)NC(=O)C1)N1CC(=O)NC(=O)C1 |  |  | Active | Active | Active |  |  |  |  |  |  | 
3 | CCCCC/C=C\C=C\C(=O)OCC1=C[C@@H]2C(=O)[C@]3(C=C(C)[C@H](O)[C@@]3(O)[C@@H]1O)[C@H](C)C[C@@H]1[C@H]2C1(C)C |  |  |  | inactive | Active | Active | inactive | 50 | Active | inactive | inactive | Active
